Where only a bound is given, the exact number is not on record here.

For one assay, the target named is T1, recombinant human GST-SYK (Homo sapiens, UniProt P43405).
T1 construct: purchased Carna Biosciences 08-176
The assay can be described thus: Homogeneous Time-Resolved Fluorescence (HTRF) assay for the recombinant human Syk enzyme. The note with it: HTRF assay, recombinant human GST-SYK; IC50 given as class symbols; read-out: rhSYK Activity. The class given is biochemical. Here is the method:
Homogeneous Time-Resolved Fluorescence (HTRF) Assay for the Recombinant Human Syk Enzyme
A recombinant GST-hSYK fusion protein was used to measure potency of compounds to inhibit human Syk activity. The recombinant human GST-SYK (Carna Biosciences #08-176) ([…]) was incubated with various concentrations of the inhibitor diluted in DMSO (0.1% final concentration) for 10 minutes at room temperature in 15 mM Tris-HCl (pH 7.5), 0.01% tween 20, 2 mM DTT in 384 well plate format. To initiate the reaction the biotinylated substrate peptide (250 nM final concentration) that contains the phosphorylation site for Syk was added with magnesium (5 mM final concentration) and ATP (25 μM final concentration). Final volume of the reaction was 10 μL. Phosphorylation of the peptide was allowed to proceed for 45′ at room temperature. To quench the reaction and detect the phosphorylated product, 2 nM of a Europium-anti-phosphotyrosine antibody (Perkin Elmer #AD0161) and 70 nM SA-APC (Perkin-Elmer #CR130-100) were added together in 15 mM Tris pH 7.5, 40 mM EDTA, 0.01% tween 20. Final volume of the quenching solution was 10 μL. The resulting HTRF signal was measured after 30 minutes on an EnVision (Perkin-Elmer) reader using a time-resolved fluorescence protocol.
In the case of `CCCCOC(=O)C1CCC(C(C)(O)c2ccc(-c3cc(C)cc(Nc4nccc(C(F)F)n4)c3)cn2)CC1` (single isomer, unassigned) [Example 9.51, butyl trans-4-{(1R or 1S)-1-[5-(3-{[4-(difluoromethyl)pyrimidin-2-yl]amino}-5-methylphenyl)pyridin-2-yl]-1-hydroxyethyl}cyclohexanecarboxylate], the IC50 is 100 to 1000 nM. For `CCCCOC(=O)C1CCC(C(C)(O)c2ccc(-c3cc(C)cc(Nc4nccc(C(F)(F)F)n4)c3)cn2)CC1` (single isomer, unassigned) [Example 9.52, butyl trans-4-{(1R or 1S)-1-hydroxy-1-[5-(3-methyl-5-{[4-(trifluoromethyl)pyrimidin-2-yl]amino}phenyl)pyridin-2-yl]ethyl}cyclohexanecarboxylate], the IC50 was 100 to 1000 nM. `CCCCOC(=O)C1CCC(C(C)(O)c2ccc(-c3cc(C)cc(Nc4ncc(Cl)c(C)n4)c3)cn2)CC1` (single isomer, unassigned) [Example 9.53, butyl trans-4-[(1R or 1S)-1-(5-{3-[(5-chloro-4-methylpyrimidin-2-yl)amino]-5-methylphenyl}pyridin-2-yl)-1-hydroxyethyl]cyclohexanecarboxylate]: the IC50 lay within 100 to 1000 nM.

Turning to `Cc1cc(Nc2nccc(C(F)(F)F)n2)cc(-c2ccnc(C3(O)CCC(C(=O)O)C(C)(C)C3)c2)c1` (single isomer, unassigned) [Example 9.59, (1S,4R or 1R,4S)-4-hydroxy-2,2-dimethyl-4-[4-(3-methyl-5-{[4-(trifluoromethyl)pyrimidin-2-yl]amino}phenyl)pyridin-2-yl]cyclohexanecarboxylic acid], the IC50 is less than 100 nM. The same measure, in the same setting: the value for `Cc1cc(Nc2ncc(Cl)c(C)n2)cc(-c2ccc(C(C)(O)C3CCC(C(=O)O)CC3)nc2)c1` (single isomer, unassigned) [Example 9.82, trans-4-[(1R or 1S)-1-(5-{3-[(5-chloro-4-methylpyrimidin-2-yl)amino]-5-methylphenyl}pyridin-2-yl)-1-hydroxyethyl]cyclohexanecarboxylic acid] was less than 100 nM. On the same count and under the same terms, the value for `Cc1cc(Nc2ncc(F)c(C)n2)cc(-c2ccc(C(C)(O)C3CCC(C(=O)O)CC3)nc2)c1` (single isomer, unassigned) [Example 9.83, trans-4-[(1R or 1S)-1-(5-{3-[(5-fluoro-4-methylpyrimidin-2-yl)amino]-5-methylphenyl}pyridin-2-yl)-1-hydroxyethyl]cyclohexanecarboxylic acid] was less than 100 nM; that for `OC1(c2cccc(-c3cc(Nc4nccc(C(F)(F)F)n4)cc(N4CCOCC4)c3)n2)CCC1` [Example 1.1, 1-{6-[3-(Morpholin-4-yl)-5-{[4-(trifluoromethyl)pyrimidin-2-yl]amino}phenyl]pyridin-2-yl}cyclobutanol] was 100 to 1000 nM. Still for that read-out and setting: the value for `FC(F)(F)c1ccnc(Nc2cc(-c3ccccn3)cc(N3CCOCC3)c2)n1` [Example 1.2, N-(3-morpholin-4-yl-5-pyridin-2-ylphenyl)-4-(trifluoromethyl)pyrimidin-2-amine] was less than 100 nM; that for `FC(F)(F)c1ccnc(Nc2cc(-c3cccc(N4CCOCC4)n3)cc(N3CCOCC3)c2)n1` [Example 1.3, N-[3-morpholin-4-yl-5-(6-morpholin-4-ylpyridin-2-yl)phenyl]-4-(trifluoromethyl)pyrimidin-2-amine] was less than 100 nM. Consider `OCCN(CCO)c1cccc(-c2cc(Nc3nccc(C(F)(F)F)n3)cc(N3CCOCC3)c2)n1` [Example 1.4, 2,2′-{[6-(3-morpholin-4-yl-5-{[4-(trifluoromethyl)pyrimidin-2-yl]amino}phenyl)pyridin-2-yl]imino}diethanol], for which the IC50 is 100 to 1000 nM.

For the molecule `Cc1cc(Nc2nccc(C(F)(F)F)n2)cc(-c2ccc(C(=O)O)nc2)c1` [Example 2.1, 5-(3-Methyl-5-{[4-(trifluoromethyl)pyrimidin-2-yl]amino}phenyl)pyridine-2-carboxylic acid], the IC50 is less than 100 nM. Still for that read-out and setting: the result for `COc1ccnc(Nc2cc(C)cc(-c3cccc(CCC(=O)O)n3)c2)n1` [Example 2.2] reads less than 100 nM; that for `COc1cccc(-c2cccc(Nc3nccc(C(F)(F)F)n3)c2)n1` [Example 2.3, N-[3-(6-methoxypyridin-2-yl)phenyl]-4-(trifluoromethyl)pyrimidin-2-amine], 1000 to 10000 nM; that for `CCC(O)(CC)c1cccc(-c2cccc(Nc3nccc(C(F)(F)F)n3)c2)n1` [Example 2.4, 3-[6-(3-{[4-(trifluoromethyl)pyrimidin-2-yl]amino}phenyl)pyridin-2-yl]pentan-3-ol], 100 to 1000 nM. The same measure, in the same setting: the result for `CCOC(=O)Cc1ccc(-c2cccc(Nc3nccc(C(F)(F)F)n3)c2)nc1` [Example 2.5, ethyl [6-(3-{[4-(trifluoromethyl)pyrimidin-2-yl]amino}phenyl)pyridin-3-yl]acetate] reads 100 to 1000 nM; that for `CS(=O)(=O)c1ccc(-c2cccc(Nc3nccc(C(F)(F)F)n3)c2)nc1` [Example 2.6, N-{3-[5-(methylsulfonyl)pyridin-2-yl]phenyl}-4-(trifluoromethyl)pyrimidin-2-amine], 100 to 1000 nM; that for `NC(=O)c1ccnc(-c2cccc(Nc3nccc(C(F)(F)F)n3)c2)c1` [Example 2.7, 2-(3-{[4-(trifluoromethyl)pyrimidin-2-yl]amino}phenyl)pyridine-4-carboxamide], 100 to 1000 nM. On to `NC(=O)c1ccc(-c2cccc(Nc3nccc(C(F)(F)F)n3)c2)nc1` [Example 2.8, 6-(3-{[4-(trifluoromethyl)pyrimidin-2-yl]amino}phenyl)pyridine-3-carboxamide], for which the IC50 lay within 100 to 1000 nM. Same read-out and setting: the value for `Cc1ccc(S(=O)(=O)Nc2ccc(-c3cccc(Nc4nccc(C(F)(F)F)n4)c3)nc2)cc1` [Example 2.9, 4-methyl-N-[6-(3-{[4-(trifluoromethyl)pyrimidin-2-yl]amino}phenyl)pyridin-3-yl]benzenesulfonamide] was 100 to 1000 nM. As to `Cc1cc(Nc2nccc(C(F)(F)F)n2)cc(-c2ccc(N)c(O)n2)c1` [Example 2.10, 3-amino-6-(3-methyl-5-{[4-(trifluoromethyl)pyrimidin-2-yl]amino}phenyl)pyridin-2-ol], the IC50 was less than 100 nM. Regarding `O=C(O)c1ccnc(-c2cccc(Nc3nccc(C(F)(F)F)n3)c2)c1` [Example 2.11, 2-(3-{[4-(trifluoromethyl)pyrimidin-2-yl]amino}phenyl)pyridine-4-carboxylic acid], the IC50 is 100 to 1000 nM. For the molecule `O=C(O)c1cccc(-c2cccc(Nc3nccc(C(F)(F)F)n3)c2)n1` [Example 2.12, 6-(3-{[4-(trifluoromethyl)pyrimidin-2-yl]amino}phenyl)pyridine-2-carboxylic acid], the IC50 was in the range of 100 to 1000 nM. For the molecule `Cc1cc(Nc2nccc(C(F)(F)F)n2)cc(-c2cccc(C(=O)O)n2)c1` [Example 2.13, 6-(3-methyl-5-{[4-(trifluoromethyl)pyrimidin-2-yl]amino}phenyl)pyridine-2-carboxylic acid], the IC50 is less than 100 nM.

In the case of `CCOC(=O)CCc1cccc(-c2cccc(Nc3nccc(C(F)(F)F)n3)c2)n1` [Example 2.14, ethyl 3-[6-(3-{[4-(trifluoromethyl)pyrimidin-2-yl]amino}phenyl)pyridin-2-yl]propanoate], the IC50 fell in the range of 1000 to 10000 nM. On the same count and under the same terms, the value for `O=C(O)CCc1ccc(-c2cccc(Nc3nccc(C(F)(F)F)n3)c2)nc1` [Example 2.16, 3-[6-(3-{[4-(trifluoromethyl)pyrimidin-2-yl]amino}phenyl)pyridin-3-yl]propanoic acid] was 100 to 1000 nM; that for `O=C(O)CCc1cccc(-c2cccc(Nc3nccc(C(F)(F)F)n3)c2)n1` [Example 2.17, 3-[6-(3-{[4-(trifluoromethyl)pyrimidin-2-yl]amino}phenyl)pyridin-2-yl]propanoic acid] was 100 to 1000 nM. Still for that read-out and setting: the result for `O=C(O)CCc1ccnc(-c2cccc(Nc3nccc(C(F)(F)F)n3)c2)c1` [Example 2.18, 3-[2-(3-{[4-(trifluoromethyl)pyrimidin-2-yl]amino}phenyl)pyridin-4-yl]propanoic acid] reads 100 to 1000 nM; that for `COc1ccnc(Nc2cc(C)cc(-c3cc(CCC(=O)O)ccn3)c2)n1` [Example 2.21, 3-(2-{3-[(4-methoxypyrimidin-2-yl)amino]-5-methylphenyl}pyridin-4-yl)propanoic acid], less than 100 nM.

Consider `Cc1cc(Nc2nccc(C(F)(F)F)n2)cc(-c2cc(CCC(=O)O)ccn2)c1` [Example 2.22, 3-[2-(3-methyl-5-{[4-(trifluoromethyl)pyrimidin-2-yl]amino}phenyl)pyridin-4-yl]propanoic acid], for which the IC50 was less than 100 nM.

As to `Cc1cc(Nc2nccc(C)n2)cc(-c2cc(CCC(=O)O)ccn2)c1` [Example 2.23, 3-(2-{3-methyl-5-[(4-methylpyrimidin-2-yl)amino]phenyl}pyridin-4-yl)propanoic acid], the IC50 is less than 100 nM. `Cc1cc(Nc2nccc(C3CC3)n2)cc(-c2cc(CCC(=O)O)ccn2)c1` [Example 2.24, 3-(2-{3-[(4-cyclopropylpyrimidin-2-yl)amino]-5-methylphenyl}pyridin-4-yl)propanoic acid]: the IC50 is less than 100 nM.

The same assay, now with this note: recombinant GST-hSYK, 25 μM ATP, HTRF; read-out: IC50 (inhibition of human Syk activity).
Regarding `OC1(c2cccc(-c3cc(Nc4nccc(C(F)(F)F)n4)cc(N4CCOCC4)c3)n2)CCC1` [Example 1.1, 1-{6-[3-(Morpholin-4-yl)-5-{[4-(trifluoromethyl)pyrimidin-2-yl]amino}phenyl]pyridin-2-yl}cyclobutanol], the IC50 turned out to be 144 nM.
